In ChEMBL document CHEMBL1133156, “Macrocarpins A-D, new cytotoxic nor-triterpenes from Maytenus macrocarpa” (Bioorg Med Chem Lett, 2000):
≈ marks a conversion by molar mass, not a printed value. Where “and” joins values, the source holds several entries; their conditions need not be identical. Equal entries are not always repeated.

What was measured:
SK-MEL-28 = experiment: Compound was tested for cytotoxic activity against SK-MEL-28 human melanoma (ATCC:HTB-72); type: functional, cell-based
A549 = experiment: Compound was tested for cytotoxic activity against A-549 human lung carcinoma (ATCC:CCL-185); type: functional, cell-based
P388 [1] = experiment: Compound was tested for cytotoxic activity against P-388D1 mouse lymphoma (ATCC:CCL-46); type: functional, cell-based
HT-29 = experiment: (§1) Compound was tested for cytotoxic activity against […] human colon carcinoma (ATCC:HTB-38); type: functional, cell-based
P388 [2] = experiment: Compound was tested for cytotoxic activity against P-388D1 mouse lymphoma (ATCC: CCL-46); type: functional, cell-based
Homo sapiens = species: Homo sapiens; experiment: as §1; type: functional

| SMILES | IC50 (SK-MEL-28) | IC50 (A549) | IC50 (P388 [1]) [µg/mL] | IC50 (HT-29) | IC50 (P388 [2]) [nM] | IC50 (Homo sapiens) [nM] |
| --- | --- | --- | --- | --- | --- | --- |
| COC(=O)[C@]1(C)CC[C@]2(C)CC[C@]3(C)C4CC(=O)c5c(cc(O)c(O)c5C=O)[C@]4(C)CC[C@@]3(C)C2C1 (stereo partly specified) | 0.5 µg/mL and 1 µM | 0.5 µg/mL and 1 µM | 0.5 (≈ 1.01 µM) | 1 µg/mL (≈ 2.01 µM) | 1000 | 2000 |
| COC(=O)[C@]1(C)CC[C@]2(C)CC[C@]3(C)C4CC(=O)c5c(cc(OC(C)=O)c(OC(C)=O)c5C=O)[C@]4(C)CC[C@@]3(C)C2C1 (stereo partly specified) | 0.25 µg/mL and 400 nM | 0.25 µg/mL and 400 nM | 0.25 (≈ 0.431 µM) | 0.25 µg/mL and 400 nM | 400 | – |
| C[C@@H]1CC2[C@]3(C)CCC4(C)C(=CC(=O)c5c4cc(O)c(O)c5C(=O)O)[C@@]3(C)CC[C@@]2(C)[C@H](O)C1=O (single isomer, unassigned) | 2.5 µg/mL and 5.2 µM | 2.5 µg/mL and 5.2 µM | 2.5 (≈ 5.18 µM) | 2.5 µg/mL and 5.2 µM | 5200 | – |
| COc1c(O)cc2c(c1C(=O)O)C(=O)C=C1C2(C)CC[C@@]2(C)C3C[C@@H](C)C(=O)[C@@H](O)[C@]3(C)CC[C@]12C (single isomer, unassigned) | 10 µg/mL and 20.7 µM | 10 µg/mL and 20.7 µM | 10 (≈ 20.1 µM) | 10 µg/mL and 20.7 µM | 20700 | – |
| CC1=C(O)C(=O)C=C2C1=CC(O)[C@H]1[C@@]2(C)CC[C@@]2(C)C3C[C@@H](C)C(=O)[C@@H](O)[C@]3(C)CC[C@]12C (single isomer, unassigned) | 1 µg/mL and 2 µM | 1 µg/mL and 2 µM | 0.5 (≈ 1.1 µM) | 1 µg/mL and 2 µM | 1000 | – |
